The target in assay [1] is Saccharomyces cerevisiae α-glucosidase (E.C 3.2.1.20) (Saccharomyces cerevisiae, UniProt P53341). The experiment in a line: Alpha-glucosidase inhibition assay. The assay is classed as biochemical. To be noted: Alpha-glucosidase inhibition IC50, isolated compounds; acarbose positive control.
In assay [2] the target is alpha-glucosidase (Saccharomyces cerevisiae, UniProt P53341). The assay is described as follows: Inhibitory type assay of BM3 on alpha-glucosidase. In kind it is biochemical.
The subject of assay [3] is alpha-glucosidase. As to conditions: kinetic studies; ref Adisakwattana et al. (2009); cited from earlier work.
For assay [4], the system named is alpha-glucosidase. As to conditions: ref Wu et al., 2017; cited from earlier work.
For a further assay, the system named is pancreatic lipase enzyme. To be noted: extracted from T. stans leaves; ref [28]; cited from earlier work.

Values joined by “and” are separate entries in the source; they are usually repeats but may differ in a detail not shown here. Identical values can stand only once.

Sequence of Saccharomyces cerevisiae α-glucosidase (E.C 3.2.1.20) (P53341 whole entry): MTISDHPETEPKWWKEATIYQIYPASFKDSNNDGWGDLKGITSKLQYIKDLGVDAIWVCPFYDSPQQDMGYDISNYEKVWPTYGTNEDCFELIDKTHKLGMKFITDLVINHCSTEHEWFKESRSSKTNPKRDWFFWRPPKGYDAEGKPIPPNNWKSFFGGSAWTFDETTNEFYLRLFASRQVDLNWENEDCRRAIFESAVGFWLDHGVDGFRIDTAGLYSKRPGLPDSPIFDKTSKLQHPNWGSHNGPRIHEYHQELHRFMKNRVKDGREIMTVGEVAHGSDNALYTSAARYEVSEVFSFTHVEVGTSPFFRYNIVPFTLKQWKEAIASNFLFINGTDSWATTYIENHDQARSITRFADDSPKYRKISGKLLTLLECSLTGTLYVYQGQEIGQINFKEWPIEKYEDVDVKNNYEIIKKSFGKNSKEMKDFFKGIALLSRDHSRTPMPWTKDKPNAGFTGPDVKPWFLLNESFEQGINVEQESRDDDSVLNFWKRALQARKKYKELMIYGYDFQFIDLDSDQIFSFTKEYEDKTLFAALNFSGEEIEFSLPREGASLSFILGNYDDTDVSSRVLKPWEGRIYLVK
Sequence of alpha-glucosidase (Saccharomyces cerevisiae, UniProt P53341) (P53341 whole entry): as above

`COC(=O)c1cc(O)c(O)c(O)c1` [BM2, methyl gallate] returned an IC50 in assay [1] of 71 ± 2.1 µM.

Turning to `COC(=O)c1cc(O)c(O)c(OC(=O)c2cc(O)c(O)c(O)c2)c1` [BM3, 3-O-galloylgallic acid methyl ester], in assay [1], the IC50 stood at 18.2 ± 0.8 µM. Further, the affinity on alpha-glucosidase [2], expressed as Ki, was 31.2 µM. Moreover, the inhibition type entry at alpha-glucosidase [2] (Lineweaver-Burk plots, pNPG 1, 2, 4 mM) is “competitive”. Also, on alpha-glucosidase [2] (no effect of increasing BM3 concentration), the Vmax was 0.049 µM/min. In the case of `O=c1c(O[C@@H]2O[C@H](CO)[C@@H](O)[C@H](O)[C@H]2O)c(-c2ccc(O)c(O)c2)oc2cc(O)cc(O)c12` [NC2, isoquercitrin], the IC50 in assay [1] is 35.6 µM and 36.8 µM. Consider `O=C(O)/C=C/c1ccc(O)c(O)c1` [NC3, caffeic acid], for which the inhibition type entry with alpha-glucosidase [3] is “non-competitive”. In the case of `C[C@H]1[C@H](C)CC[C@]2(C(=O)O)CC[C@]3(C)C(=CC[C@@H]4[C@@]5(C)CC[C@H](O)C(C)(C)[C@@H]5CC[C@]43C)[C@H]12` [TS1, ursolic acid], 39.2 ± 0.6 µM corresponded to half-maximal inhibition in assay [1] (IC50). Moreover, in the assay with alpha-glucosidase [4], the inhibition of alpha-glucosidase entry was “strong inhibition”. Take `COc1cc(-c2cc(=O)c3c(O)cc(O)cc3o2)ccc1O` [TS3, chrysoeriol]: the “inhibition of pancreatic lipase enzyme” value in the assay with pancreatic lipase enzyme was “strong inhibition”.

Source of the values: PMC8848031 (Saudi Journal of Biological Sciences, 2021).
